Article PMC12171682, “Saarvienin A—A Novel Glycopeptide with Potent Activity against Drug‐Resistant Bacteria” (Angewandte Chemie (International Ed. in English), 2025)
In brackets after ≈: the same amount, converted by molar mass. Read-outs that look alike come from different tables or passages of the source.

Assays:
[1] = test system: E. faecalis DSM 12956 (VRE, vanB positive); conditions: broth microdilution, cation-adjusted Mueller-Hinton Broth II, ~4 × 10⁵ CFU/mL, 37 °C, 24 h; mean of three independent biological replicates, each in technical triplicate
[2] = test system: E. coli WO153 (AB1157, recJ asmB1, ΔtolC); conditions: broth microdilution, cation-adjusted Mueller-Hinton Broth II, ~4 × 10⁵ CFU/mL, 37 °C, 24 h; mean of three independent biological replicates, each in technical triplicate
[3] = test system: E. faecium DSM 17050 (VRE, vanA positive); conditions: broth microdilution, cation-adjusted Mueller-Hinton Broth II, ~4 × 10⁵ CFU/mL, 37 °C, 24 h; mean of three independent biological replicates, each in technical triplicate
[4] = test system: S. aureus N315 (MRSA); conditions: broth microdilution, cation-adjusted Mueller-Hinton Broth II, ~4 × 10⁵ CFU/mL, 37 °C, 24 h; mean of three independent biological replicates, each in technical triplicate
[5] = test system: E. faecalis ATCC 29212; conditions: broth microdilution, 37 °C, 24 h
[6] = test system: vancomycin‐resistant E. faecium clinical isolates with reduced susceptibility to daptomycin (n = 26); conditions: 24 h
[7] = test system: E. coli K12 ΔtolC; conditions: broth microdilution, cation-adjusted Mueller-Hinton Broth II, 37 °C, 24 h, mean of three independent biological replicates, each in technical triplicate
[8] = test system: S. aureus DSM 11822 (MDR); conditions: broth microdilution, cation-adjusted Mueller-Hinton Broth II, ~4 × 10⁵ CFU/mL, 37 °C, 24 h; mean of three independent biological replicates, each in technical triplicate
[9] = test system: S. aureus Mu50 (MRSA/VISA); conditions: broth microdilution, cation-adjusted Mueller-Hinton Broth II, ~4 × 10⁵ CFU/mL, 37 °C, 24 h, mean of three independent biological replicates, each in technical triplicate
[10] = test system: M. tuberculosis H37Ra ATCC 25177
[11] = test system: E. coli K12 ΔacrB; conditions: broth microdilution, cation-adjusted Mueller-Hinton Broth II, ~4 × 10⁵ CFU/mL, 37 °C, 24 h, mean of three independent biological replicates, each in technical triplicate
[12] = test system: S. aureus HG001‐DRSA; conditions: daptomycin-resistant mutant of HG001; broth microdilution, cation-adjusted Mueller-Hinton Broth II, ~4 × 10⁵ CFU/mL, 37 °C, 24 h; mean of three independent biological replicates, each in technical triplicate

## CN[C@@]1(C)C[C@H](O[C@@H]2[C@H](O)C[C@H](O[C@H]3[C@H](C)O[C@@H](O[C@H]4[C@H](O[C@H]5[C@H](C)O[C@@H](Oc6ccc(C[C@@H](O)C(=O)N[C@H]7CNC(=O)NC[C@@H](C(=O)N[C@H](Cc8ccccc8)C(=O)O)NC(=O)[C@H]([C@H](C)c8c[nH]c9ccc(Cl)cc89)NC7=O)cc6)C[C@]5(C)N)O[C@@H](C)[C@H](O)[C@H]4O)C[C@]3(C)NC)O[C@H]2C)O[C@@H](C)[C@@H]1OC [Saarvienin A, saarvienin A]
[1]
  MIC, E. faecalis DSM 12956 (VRE, vanB positive): 1 µg/mL (≈ 0.662 µM)
[2]
  MIC, E. coli WO153 (AB1157, recJ asmB1, ΔtolC): 2 µg/mL (≈ 1.32 µM)
[3]
  MIC, E. faecium DSM 17050 (VRE, vanA positive): 1 µg/mL (≈ 0.662 µM)
[4]
  MIC, S. aureus N315 (MRSA): 0.5 µg/mL (≈ 0.331 µM)
[5]; cation-adjusted Mueller-Hinton Broth II, ~4 × 10⁵ CFU/mL, mean of three independent biological replicates, each in technical triplicate
  MIC, E. faecalis ATCC29212: 2 µg/mL (≈ 1.32 µM)
[5]; reference strain in Table S5, MHB II, daptomycin with 50 µg/mL Ca2+, mean of two independent experiments
  MIC, E. faecalis ATCC29212: 2 µg/mL (≈ 1.32 µM)
[6]
  MIC50: 0.5 µg/mL (≈ 0.331 µM)
  MIC90: 0.5 µg/mL (≈ 0.331 µM)
  MIC Range: 0.5 to 1 µg/mL
  MIC, Enterococcus faecium isolate 1: 1 µg/mL (≈ 0.662 µM)
  MIC, Enterococcus faecium isolate 2: 0.5 µg/mL (≈ 0.331 µM)
  MIC, Enterococcus faecium isolate 3: 0.5 µg/mL (≈ 0.331 µM)
  MIC, Enterococcus faecium isolate 4: 0.5 µg/mL (≈ 0.331 µM)
  MIC, Enterococcus faecium isolate 5: 0.5 µg/mL (≈ 0.331 µM)
  MIC, Enterococcus faecium isolate 6: 0.5 µg/mL (≈ 0.331 µM)
  MIC, Enterococcus faecium isolate 7: 0.5 µg/mL (≈ 0.331 µM)
  MIC, Enterococcus faecium isolate 8: 0.5 µg/mL (≈ 0.331 µM)
  MIC, Enterococcus faecium isolate 9: 0.5 µg/mL (≈ 0.331 µM)
  MIC, Enterococcus faecium isolate 10: 0.5 µg/mL (≈ 0.331 µM)
  MIC, Enterococcus faecium isolate 11: 0.5 µg/mL (≈ 0.331 µM)
  MIC, Enterococcus faecium isolate 12: 0.5 µg/mL (≈ 0.331 µM)
  MIC, Enterococcus faecium isolate 13: 0.5 µg/mL (≈ 0.331 µM)
  MIC, Enterococcus faecium isolate 14: 0.5 µg/mL (≈ 0.331 µM)
  MIC, Enterococcus faecium isolate 15: 0.5 µg/mL (≈ 0.331 µM)
  MIC, Enterococcus faecium isolate 16: 0.5 µg/mL (≈ 0.331 µM)
  MIC, Enterococcus faecium isolate 17: 0.5 µg/mL (≈ 0.331 µM)
  MIC, Enterococcus faecium isolate 18: 0.5 µg/mL (≈ 0.331 µM)
  MIC, Enterococcus faecium isolate 19: 0.5 µg/mL (≈ 0.331 µM)
  MIC, Enterococcus faecium isolate 20: 0.5 µg/mL (≈ 0.331 µM)
  MIC, Enterococcus faecium isolate 21: 0.5 µg/mL (≈ 0.331 µM)
  MIC, Enterococcus faecium isolate 22: 0.5 µg/mL (≈ 0.331 µM)
  MIC, Enterococcus faecium isolate 23: 0.5 µg/mL (≈ 0.331 µM)
  MIC, Enterococcus faecium isolate 24: 0.5 µg/mL (≈ 0.331 µM)
  MIC, Enterococcus faecium isolate 25: 0.5 µg/mL (≈ 0.331 µM)
  MIC, Enterococcus faecium isolate 26: 0.5 µg/mL (≈ 0.331 µM)
[7]; co‐incubated with sub‐lethal concentrations of polymyxin B nonapeptide (PMBN)
  MIC, E. coli K12 ΔtolC (tolC‐deficient) + PMBN: 32 µg/mL
[7]; without PMBN, ~4 × 10⁵ CFU/mL
  MIC, E. coli K12 ΔtolC: 64 µg/mL (≈ 42.4 µM)
[8]
  MIC, S. aureus DSM 11822 (MDR): 0.5 µg/mL (≈ 0.331 µM)
[9]
  MIC, S. aureus Mu50 (MRSA/VISA): 1 µg/mL (≈ 0.662 µM)
[9]; listed as 1
  MIC, S. aureus Mu50 (MRSA/VISA): 0.5 µg/mL (≈ 0.331 µM)
[10]
  MIC, M. tuberculosis H37Ra ATCC 25177: 32 µg/mL (≈ 21.2 µM)
[11]
  MIC, E. coli K12 ΔacrB: >64 µg/mL
[11]; listed as 1
  MIC, E. coli K12 ΔacrB: non‐susceptible
[12]
  MIC, S. aureus HG001‐DRSA: 1 µg/mL (≈ 0.662 µM)
